Patent US10350228B2, “Treatment of sickle cell disease and inflammatory conditions” (Seattle Genetics, Inc., priority 2012, dated 2019)
“Also recorded” adds a separate entry of the source.

What was measured:
[1] = tested on: antibody core fucosylation; assay: Inhibition of antibody core fucosylation by fucose analogs; format: cell-based
From the text: Methods of determining whether a fucose analog is capable of having an effect on antibody core fucosylation is provided in WO 2012/019165.

E-selectin [2] = assay: Adhesion of LS174T cells to immobilized E-selectin; format: cell-based; conditions: cells cultured with 100 μM for 10 days; adhesion at 4° C.
Method: LS174T cells (ATCC) were cultured in MEM-Eagle with 10% FBS with or without 100 μM 2-fluorofucose for 10 days. For adhesion to purified E-selectin, non-tissue culture treated 96-well clear bottom black culture plates were coated with E-selectin-Fc chimera (5 μg/mL, PBS) and controls with 3% BSA/PBS, 2 hr at 37° C., then overnight at 4° C. Wells were washed two times with PBS and blocked with 3% BSA/PBS (2 hr, room temperature). LS174T cells were harvested and washed with PBS 2 times, labeled with 5 μM Calcein-AM in serum-free medium (15 min), and washed with DBPS two times. Cells in DPBS (100 μL) of were added to each well and the plate was kept at 4° C. for 2 hr. Plates were read at 480 nm excitation and 520 nm emission (total cell reading) and then washed with DPBS four times, followed by fluorescent analysis.

activated HUVEC cells = assay: Adhesion of LS174T cells to TNFα-activated HUVEC cells; format: cell-based; conditions: cells cultured with 100 μM for 10 days; adhesion at 4° C.
Method: For adhesion to activated HUVEC cells, non-tissue culture treated 96-well clear bottom black culture plates were coated with attachment factor (100 μL/well), 30 min at room temperature. Wells were aspirated and HUVECs were added to half of the wells (40,000 cells/200 μL cell culture medium) while 3% BSA/PBS was added to the remaining control wells (100 μL) and the plate was incubated overnight at 37° C., 5% CO2. The confluent HUVEC cells were then treated with TNFα (20 ng/mL in PBS) for 4 hr at 37° C. Meanwhile tumor cells were labeled with Calcein-AM as described. The wells of the 96-well plate were all aspirated and seeded with 2-fluorofucose-treated or untreated labeled LS174T cells (500000 cells/well) and the plate was kept at 4° C. for 2 hr. Plates were read at 480 nm excitation and 520 nm emission (total cell reading) and then washed with DPBS four times, followed by fluorescent analysis. (see FIG. 4; The numeral 1 refers to 2-fluorofucose).

P-selectin = P-selectin binding to neutrophils from treated mice (flow cytometry); format: in vivo, Balb/c mice; conditions: 10 or 100 mM in drinking water, day 21
Method: (§1) Female Balb/c mice were given oral 2-fluorofucose in their drinking water (10 mM, 100 mM, n=3/group) or left untreated. Mice remained on the 2-fluorofucose-containing water through day 21 when blood was collected. Pre-dose bleeds were collected for baseline comparison. Total white cells/μL blood were determined by hemacytometer using Turk's solution (0.01% gentian violet in 3% acetic acid) to exclude red blood cells. RBCs were eliminated from the remainder of the blood by osmotic lysis for flow cytometric analysis. Cells were incubated with anti-Gr-1-FITC antibodies (BD Biosciences) to identify neutrophils, and a recombinant P-selectin-human Fc fusion protein (R&D Systems) or a recombinant E-selectin-human Fc fusion protein. Cells were washed and then incubated with a PE-labeled goat anti-human IgG-Fc secondary antibody (Jackson Immunoresearch) to detect bound P-selectin or E-selectin. Samples were collected on a FACSCalibur flow cytometer and analyzed using CellQuest software. The percentage of Gr-1+ cells was determined and absolute number of neutrophils was calculated using the total white cell number from the hemacytometer count. In addition, flow samples were gated for Gr-1+ cells to assess P-selectin or E-selectin binding to neutrophils by histogram analysis. The geometric mean of the P-selectin or E-selectin fluorescent signal was determined from the histogram. […]

E-selectin [3] = assay: E-selectin binding to neutrophils from treated mice (flow cytometry); format: in vivo, Balb/c mice; conditions: 10 or 100 mM in drinking water, day 21
Method: as §1

blood neutrophils = assay: Blood neutrophil counts in treated mice; format: in vivo, Balb/c mice; conditions: 10 or 100 mM in drinking water, day 21
Method: as §1

white blood cells = assay: White blood cell counts in sickle cell mice; format: in vivo, NY1DD sickle cell mice; conditions: 7 days
Method: (§2) NY1DD sickle cell mice were given plain water or 20 or 100 mM 2-fluorofucose in their drinking water ad libitum for 7 days. The treatment and control group had four mice per treatment group. On day 7, the mice were sacrificed with CO2. An EDTA blood sample was collected from the heart and the liver was removed and frozen in liquid nitrogen. Total white blood cell counts and differentials were performed by manual counting using a hemocytometer and Wright-stained blood smears, respectively. Nuclear extracts were prepared from nuclei isolated from liver homogenates. Western blots of the nuclear extracts were immunostained with antibodies to NF-κB phospho-p65 a marker of NF-κB activation.

NF-κB phospho-p65 = assay: Western blot of NF-κB phospho-p65 in liver nuclear extracts of sickle cell mice; format: in vivo, NY1DD sickle cell mice; conditions: 7 days
Method: as §2

NY1DD sickle cell mice = assay: Hemoglobin-induced vascular stasis in dorsal skin fold chamber venules; format: in vivo; conditions: 20 mM in drinking water 7 days
Method: NY1DD sickle cell mice were given plain water or 20 or 100 mM 2-fluorofucose in their drinking water ad libitum for 7 days. On day 4, dorsal skin fold chambers were implanted onto the mice (n=4). On day 7, flowing venules in the dorsal skin-fold chamber window were selected and mapped using intravital microscopy. Thereafter, the mice were infused via the tail vein with human stroma-free hemoglobin (0.32 μmols heme/kg), a known inducer of vascular stasis in SCD mice. At 1 and 4 hours after infusion the same venules were re-examined and the percentage of vessels that had become static (no flow) was recorded. A control group of NY1DD mice (n=3) with implanted dorsal skin-fold chambers was given water to drink and injected intraperitoneally with hemin (40 μmols/kg×3 days) a known inhibitor of vascular stasis

## C[C@H](O)[C@@H](O)[C@@H](O)[C@H](F)C=O [2-fluorofucose, 2-deoxy-2-fluorofucose]
[1]; Table 2, 50 μM analog, read-out: Inhibition at 50 μM
  inhibition at 50 µM: > 80%
[1]; Table 2, 1 mM analog
  inhibition at 1000 µM: > 80%
E-selectin [2]
  adhesion of LS174T cells to immobilized E-selectin: decreased adhesion; also recorded: diminished adhesion to selectins
Activated HUVEC cells
  adhesion of LS174T cells to HUVEC cells activated with TNFα: decreased adhesion
P-selectin
  P-selectin binding to neutrophils: dimished and loss
E-selectin [3]
  E-selectin binding to neutrophils: loss
Blood neutrophils
  blood neutrophil counts: significantly increased
White blood cells; 20 mM in drinking water
  White blood cells counts (mean+SD): 22.1+5.2 K/μL
White blood cells; 100 mM in drinking water
  White blood cells counts (mean+SD): 34.2+7.2 K/μL
NF-κB phospho-p65; 20 mM in drinking water
  Nuclear NF-κB phospho-p65 in liver: partially diminished
NF-κB phospho-p65; 100 mM in drinking water
  Nuclear NF-κB phospho-p65 in liver: markedly decreased
NY1DD sickle cell mice; 1 hour after hemoglobin infusion
  percent static venules (vascular stasis): partially inhibited stasis; also recorded: partially diminished
NY1DD sickle cell mice; 4 hours after hemoglobin infusion
  percent static venules (vascular stasis): partially inhibited stasis; also recorded: partially diminished
